Data from patent US6083964A, “Optical resolution of racemic aminoalkylpyridine anticonvulsants and (+) aminoalkylpyridine enantiomers as highly potent orally effective anticonvulsant drugs and excitatory amino acid antagonists” (K and K Biosciences, Inc., priority 1999, dated 2000).

Tests used:
[1] = Neurological deficit, positional sense test and gait and stance test, rats, p.o.; set-up: species or system rat (Sprague-Dawley); settings: rat, in vivo, po
Protocol: (§1) Neurotoxicity is determined by the rotorod ataxia test in mice and by the positional sense test and gait and stance test in the rat. The following Table 2 presents the results of these anticonvulsant tests with respect to several (+) and (-) AAP enantiomeric compounds derived from optical resolution of racemic AAPs of the present invention. This Table 2 identifies the specific compounds tested by their chemical name and provides the test model, the route of administration, the animal species used, and the anticonvulsant activity and toxicity in terms of ED50 and TD50 values, (the median effective and toxic dose respectively), when intraperitoneally administered to mice, and when orally administered to rats. […] This species will be the subject of the complete anticonvulsant quantification test evaluation as described above, but after oral (gavage) administration of the candidate compound. […] Neurological deficit in rats is examined by the positional sense test and gait and stance test. […] Inability to do so rapidly indicates a neurologic deficit. In the gait and stance test, a neurologic deficit is indicated by a circular or a zigzag gait, ataxia, abnormal spread of the legs, abnormal body posture, tremor, hyperactivity, lack of exploratory behavior, somnolence, stupor, or catalepsy.

[2] = system: pentylenetetrazol (Metrazole) seizure threshold in mice; assay: Timed intravenous Metrazol (PTZ) seizure threshold test in mice, i.p.; format: in vivo, mouse; settings: for time to twitch: control 33.03; for PTZ dose for the clonus component: control 37.60; for time to clonus: control 39.71; for amount of PTZ required to produce the twitch and clonus and time to twitch and time to clonus (in words): mice
Excerpt: A compound that is active in the MES test and prevents seizure spread, can lower seizure threshold at the same time. Such a compound would have proconvulsant activity while at the same time prevent generalized tonic seizures. […] The timed intravenous pentylenetetrazol (Metrazol) seizure threshold test in mice identifies those MES compounds with proconvulsant potential.
Mice were given the (+) and (-) enantiomers, compounds 1 and 2 in Table 1, intraperitoneally at the ED50 and TD50. At the time of maximal MES activity, an intravenous infusion of 0.5% heparinized solution of pentylenetetrazol (PT2) (0.34 ml/min) was started. The time to the appearance of the first myoclonic jerk (twitch) and the subsequent sustained clonic seizure (clonus) were the measured endpoints. Results were obtained for groups of ten treated and ten saline control mice and converted to the dose in mg/kg of PTZ necessary to produce the two endpoints.
Experiments were performed using three doses of 0, 36 and 149 mg/kg on each of 10 animals per dosage group. The time to "twitch" and the time to "clonus", the two components of the seizure elicited by the infusion of metrazol, were observed.

hippocampal kindled rats = assay: Hippocampal kindled rat model, i.p.; format: in vivo; set-up: key to Seizure Score ± S.E.M.: Racine seizure class scale; class 5 = rearing and falling; settings: for seizure score and afterdischarge duration (in words): hippocampal kindled rat
Excerpt: "Kindling" refers to the process whereby repeated administration of an initially subconvulsive electrical stimulus results in progressive intensification of epileptic discharge culminating in a generalized seizure. Kindling can be induced by electrical stimulation of many sites in the brain, especially in "limbic" areas, which include amygdala, hippocampus, and entorhinal cortex [Racine, R., Neurosurgery, 3, 234-252 (1978)]. Kindling is reliably produced by a one second train of 60 Hz square wave stimuli of one millisecond duration at current levels which initially produce only a slight afterdischarge (AD), but no behavioral response. Repeated stimulation, typically once daily, results in a progressive increase in AD amplitude, duration and complexity with subsequent spread to other brain areas culminating in a fully generalized motor seizure. [Racine, R. J. and Zaide, J., In "Mechanisms, the Continuing Evolution of the Limbic System Concept" (K. E. Livingston and O. Hornykiewicz, eds.), Plenum Press, pp. 457-493, 1978.
The development of kindling in the rat has been characterized by five (1 to 5) behavioral and electrographic "classes". The behavior in classes 1 (facial clonus) and 2 (head nodding) mimics that found in human complex partial seizures; the behavior in other classes would be consistent with limbic seizures evolving to generalized motor seizures. An animal is considered to be fully kindled once the enhanced sensitivity has developed, as evidenced by a class 5 seizure (rearing and falling).
The (+) AAP enantiomer, compound 1 in Table 1, was tested in the hippocampal kindled rat, by the i.p. route. […]
The (-) AAP enantiomer, compound 2 in Table 1, was also tested in the hippocampal kindled rat, by the i.p. route.

[3] = system: neurological deficit in rats; assay: Neurological deficit, positional sense test and gait and stance test, rats, p.o.; set-up: species or system rat (Sprague-Dawley); settings: rat, in vivo, po
Protocol: as §1

[4] = 100 mg/kg i.p., 15 min, Table 3 value * significantly different from control
[5] = 100 mg/kg i.p., 45 min, Table 3 value * significantly different from control
[6] = 100 mg/kg i.p., 75 min, Table 3 value * significantly different from control
[7] = 100 mg/kg i.p., 105 min, Table 3 value * significantly different from control

## CC(Nc1ccc(Cl)cc1)c1ccncc1 (single isomer, unassigned; (+)) [Compound 1, (+) N-(4-Chlorophenyl)-1-(4-pyridyl)ethylamine]
[1]
  TD50: > 500 mg/kg
[2]; 36 mg/kg dosage group
  time to twitch: 34.91 s
  PTZ dose for the clonus component: 46.84 mg/kg
  time to clonus: 48.56 s
[2]; 149 mg/kg dosage group, control 31.23
  PTZ dose for the twitch component: 33.31 mg/kg
[2]; 149 mg/kg dosage group
  time to twitch: 35.01 s
  PTZ dose for the clonus component: 74.13 mg/kg
  time to clonus: 77.56 s
[2]
  amount of PTZ required to produce the twitch and clonus and time to twitch and time to clonus (in words): significantly raised
Hippocampal kindled rats; 25 mg/kg i.p., 15 min
  Afterdischarge Duration (sec) ± S.E.M.: 76.63 ± 7.34 s
  Seizure Score ± S.E.M.: 4.63 ± 0.18
Hippocampal kindled rats; 25 mg/kg i.p., 45 min
  # Protected/# Tested: 2/8
  Afterdischarge Duration (sec) ± S.E.M.: 54.63 ± 12.54 s
  Seizure Score ± S.E.M.: 3.75 ± 0.65
Hippocampal kindled rats; 25 mg/kg i.p., 75 min
  Afterdischarge Duration (sec) ± S.E.M.: 62.75 ± 10.46 s
  Seizure Score ± S.E.M.: 4.13 ± 0.48
Hippocampal kindled rats; 25 mg/kg i.p., 105 min
  Afterdischarge Duration (sec) ± S.E.M.: 74.75 ± 6.44 s
  Seizure Score ± S.E.M.: 5.00 ± 0.00
Hippocampal kindled rats; 25 mg/kg i.p., 135 min
  Seizure Score ± S.E.M.: 4.50 ± 0.19
Hippocampal kindled rats; 50 mg/kg i.p., 15 min
  Afterdischarge Duration (sec) ± S.E.M.: 56.43 ± 7.60 s
  Seizure Score ± S.E.M.: 3.75 ± 0.53
Hippocampal kindled rats; 50 mg/kg i.p., 45 min
  # Protected/# Tested: 2/8
  Afterdischarge Duration (sec) ± S.E.M.: 63.38 ± 10.75 s
  Seizure Score ± S.E.M.: 4.13 ± 0.40
Hippocampal kindled rats; 50 mg/kg i.p., 75 min
  Afterdischarge Duration (sec) ± S.E.M.: 63.14 ± 6.38 s
  Seizure Score ± S.E.M.: 4.71 ± 0.18
Hippocampal kindled rats; 50 mg/kg i.p., 105 min
  Afterdischarge Duration (sec) ± S.E.M.: 74.57 ± 11.58 s
  Seizure Score ± S.E.M.: 4.71 ± 0.18
Hippocampal kindled rats; 50 mg/kg i.p., 135 min
  Afterdischarge Duration (sec) ± S.E.M.: 61.43 ± 12.97 s
  Seizure Score ± S.E.M.: 4.00 ± 0.69
Hippocampal kindled rats; 50 mg/kg i.p., 165 min
  Afterdischarge Duration (sec) ± S.E.M.: 73.14 ± 9.41 s
  Seizure Score ± S.E.M.: 4.57 ± 0.20
Hippocampal kindled rats; 75 mg/kg i.p., 15 min
  Afterdischarge Duration (sec) ± S.E.M.: 63.29 ± 6.70 s
Hippocampal kindled rats; 75 mg/kg i.p., 15 min, * significantly different from control
  Seizure Score ± S.E.M.: 2.86 ± 0.59
Hippocampal kindled rats; 75 mg/kg i.p., 45 min
  # Protected/# Tested: 5/7
  Afterdischarge Duration (sec) ± S.E.M.: 55.43 ± 10.39 s
Hippocampal kindled rats; 75 mg/kg i.p., 45 min, * significantly different from control
  Seizure Score ± S.E.M.: 2.43 ± 0.69
Hippocampal kindled rats; 75 mg/kg i.p., 75 min
  Afterdischarge Duration (sec) ± S.E.M.: 74.57 ± 10.36 s
Hippocampal kindled rats; 75 mg/kg i.p., 75 min, * significantly different from control
  Seizure Score ± S.E.M.: 2.86 ± 0.59
Hippocampal kindled rats; 75 mg/kg i.p., 105 min
  Afterdischarge Duration (sec) ± S.E.M.: 68.57 ± 5.52 s
Hippocampal kindled rats; 75 mg/kg i.p., 105 min, * significantly different from control
  Seizure Score ± S.E.M.: 3.86 ± 0.34
Hippocampal kindled rats; 75 mg/kg i.p., 135 min
  Afterdischarge Duration (sec) ± S.E.M.: 65.00 ± 4.12 s
  Seizure Score ± S.E.M.: 4.14 ± 0.26
Hippocampal kindled rats; 100 mg/kg i.p., 15 min
  Afterdischarge Duration (sec) ± S.E.M.: 63.43 ± 11.37 s
Hippocampal kindled rats; [4]
  Seizure Score ± S.E.M.: 2.00 ± 0.69
Hippocampal kindled rats; 100 mg/kg i.p., 45 min
  # Protected/# Tested: 6/7
  Afterdischarge Duration (sec) ± S.E.M.: 63.29 ± 4.76 s
Hippocampal kindled rats; [5]
  Seizure Score ± S.E.M.: 2.00 ± 0.58
Hippocampal kindled rats; 100 mg/kg i.p., 75 min
  Afterdischarge Duration (sec) ± S.E.M.: 75.43 ± 9.70 s
Hippocampal kindled rats; [6]
  Seizure Score ± S.E.M.: 2.29 ± 0.61
Hippocampal kindled rats; 100 mg/kg i.p., 105 min
  Afterdischarge Duration (sec) ± S.E.M.: 71.00 ± 5.35 s
Hippocampal kindled rats; [7]
  Seizure Score ± S.E.M.: 2.29 ± 0.71
Hippocampal kindled rats; Rattus norvegicus, ip, 0.75 h, hippocampal kindled rats, 45 min, 95% C.I. printed b332
  ED50: 54.9 mg/kg
Hippocampal kindled rats; dose response, hippocampal kindled rats, i.p., 45 min
  Slope: 2.93 ± 1.16
Hippocampal kindled rats; i.p.
  seizure score and afterdischarge duration (in words): significantly reduced seizure score and afterdischarge duration and the effect was dose-dependent
Hippocampal kindled rats; i.p., listed as (+) N-(4-chlorophenyl)-1-(4-pyridyl)ethylamine
  seizure score and afterdischarge duration (in words): significantly reduced from that of the control

## CC(Nc1ccc(Cl)cc1)c1ccncc1 (single isomer, unassigned; (-)) [Compound 2, (-) N-(4-Chlorophenyl)-1-(4-pyridyl)ethylamine]
[3]
  TD50: > 500.0 mg/kg
[2]
  amount of PTZ required to produce the twitch and clonus and time to twitch and time to clonus (in words): only in modest amounts
Hippocampal kindled rats; 100 mg/kg i.p., 15 min
  Afterdischarge Duration (sec) ± S.E.M.: 69.88 ± 8.29 s
Hippocampal kindled rats; [4]
  Seizure Score ± S.E.M.: 4.63 ± 0.38
Hippocampal kindled rats; 100 mg/kg i.p., 45 min
  Afterdischarge Duration (sec) ± S.E.M.: 74.88 ± 10.31 s
Hippocampal kindled rats; [5]
  Seizure Score ± S.E.M.: 4.25 ± 0.49
Hippocampal kindled rats; 100 mg/kg i.p., 75 min
  Afterdischarge Duration (sec) ± S.E.M.: 82.50 ± 6.11 s
Hippocampal kindled rats; [6]
  Seizure Score ± S.E.M.: 4.75 ± 0.16
Hippocampal kindled rats; 100 mg/kg i.p., 105 min
  Afterdischarge Duration (sec) ± S.E.M.: 75.75 ± 11.71 s
Hippocampal kindled rats; [7]
  Seizure Score ± S.E.M.: 4.50 ± 0.50
Hippocampal kindled rats; 100 mg/kg i.p., 135 min
  Afterdischarge Duration (sec) ± S.E.M.: 82.63 ± 5.04 s
  Seizure Score ± S.E.M.: 4.75 ± 0.16
Hippocampal kindled rats; 100 mg/kg i.p., 165 min
  Afterdischarge Duration (sec) ± S.E.M.: 79.00 ± 12.92 s
  Seizure Score ± S.E.M.: 4.13 ± 0.61
Hippocampal kindled rats; 100 mg/kg i.p., 195 min
  # Protected/# Tested: 2/8
  Afterdischarge Duration (sec) ± S.E.M.: 69.25 ± 11.15 s
  Seizure Score ± S.E.M.: 3.88 ± 0.67
Hippocampal kindled rats; 100 mg/kg i.p., 225 min
  Afterdischarge Duration (sec) ± S.E.M.: 83.75 ± 5.17 s
  Seizure Score ± S.E.M.: 4.25 ± 0.16
Hippocampal kindled rats; 100 mg/kg i.p., 255 min
  Afterdischarge Duration (sec) ± S.E.M.: 73.13 ± 11.97 s
  Seizure Score ± S.E.M.: 4.00 ± 0.50
Hippocampal kindled rats; 100 mg/kg i.p., 285 min
  Afterdischarge Duration (sec) ± S.E.M.: 84.50 ± 6.76 s
  Seizure Score ± S.E.M.: 4.83 ± 0.17
Hippocampal kindled rats; i.p.
  activity in hippocampal kindled rat (in words): only moderate activity
